In paper PMC8878324, “Evaluation of New Antimicrobial Agents Based on tris(1H-Indol-3-yl)methylium Salts: Activity, Toxicity, Suppression of Experimental Sepsis in Mice” (Pharmaceuticals, 2022):
Where two headings read alike, the source gives them in different places.

Tests used:
Type in all cases: in vivo
[1] = Acute toxicity study, intravenous; conditions: female, SHK, mouse, in vivo, mice, single intravenous; for MTD: read-out: MTD (LD10)
Protocol: (§1) In toxicological experiments with each compound, 72 to 108 animals were used and divided into 8 or 9 experimental groups (6 to 12 mice each), in which the animals received various doses of the tested compounds. There was also a control group of animals, which was injected with the corresponding solvent instead of the experimental compound, and a control group of intact animals. The prepared substances were injected into the animals intravenously (into the tail vein); the dose range was from 1.0 to 100 mg/kg.
(§2) The study was conducted on adult female SHK mice (18–20 g) obtained from the animal breeding unit of the FMBA (Scientific Center for Biomedical Technologies of the Federal Biomedical Agency, Moscow, Russia). The animals were randomly divided into groups (n = 6 for the study of acute toxicity, n = 10 (or 8) to study the efficacy of suppressing staphylococcal sepsis). The study of the effectiveness of drugs in the treatment of staphylococcal sepsis required the use of 110–175 mice for each drug, 10 animals per group. The animal study was approved by the Ethics of Animal Experimentation of Gause Institute of New Antibiotics (protocol No 13/2019).
(§3) To prepare solutions of preparations suitable for intravenous administration, dried test compounds with a purity of at least 99% were dissolved in a 5% glucose solution for intravenous administration at a concentration of 3.2 or 6.4 mg/mL. The solutions were sterilized by filtration through Sterivex 0.22 μm filters (Millipore, Burlington, MA, USA). Sterile solutions of drugs with a reduced concentration were then prepared, which allowed for the introduction ofvarious doses of drugs with the same volume (0.2 mL) of solutions. The test preparations were stored at a temperature no higher than 25 °C.
(§4) The study of acute toxicity of each drug was conducted on 72 mice (6 mice per group) using a solution of the test drug prepared in 5% glucose solution. The drug was injected into the tail vein of the animals (0.2 mL) using a syringe with a metal needle in a dose range of 1.0 mg/kg to 70 mg/kg.
(§5) From the first day after administration, the animals were under continuous observation. The number of dead animals and the time of their death were recorded daily. The body weight of the animals and their food consumption was recorded once a week, and the clinical signs of the animals’ health were assessed daily. The duration of observation of the animals was at least 30 days after the last death of the animal. Doses characterizing the toxicity of drugs were calculated by the Litchfield and Wilcoxon method using the StatPlus 2006 software AnalystSoft StatPlus—statistical analysis program, version 2006 (http://www.analystsoft.com/, accessed 11 January 2022). The mean and standard deviation were calculated for all data. The differences are defined as significant at p ≤ 0.05.

[2] = system: SHK mice; experiment: Acute toxicity study, intravenous; conditions: for LD16 / LD84 / LD100: single intravenous
Protocol: as §1, §2, §3, §4, §5

[3] = system: S. aureus 10; experiment: Model of staphylococcal sepsis in mice; conditions: for Death (%) / Survival Rate (%): 14 days; for Dead animals/survivors: 3 mg/kg
Protocol: To determine the ability of drugs to suppress staphylococcal sepsis, a clinical isolate of S. aureus 10, lacking drug resistance and adapted for use in animals, was used. Animals, divided into several experimental groups, were intravenously infected with a lethal dose of S. aureus (0.1 mL each) (Groups 1–5). […] Along with the testing of compounds of the trisndolylmethylium class, a similar experiment was carried out with levofloxacin, taken as a reference drug for a separate group of animals (Group 4). The control group of animals received an intravenous injection of 5% glucose solution instead of the tested preparations (Group 5). Another control group, which also received a single injection of 5% glucose solution, consisted of animals that were not exposed to infection (Group 6). To study each drug, 110–150 animals were required, which were divided into small subgroups of 10 mice each to test various doses of the compounds studied. The number of dead animals and the time of their death were recorded daily, and the appearance of the animals and their weight were assessed. The duration of the experiment was 14 days.
as §2
The experiment used a strain of S. aureus 10, having no drug resistance and adapted for use in animals. Initially, the 100% lethal dose (LD100) was determined for this pathogen strain in SHK mice, i.e., the dose of the pathogen at which the death of 100% of the animals was recorded. LD100 dose of staphylococcus detected in the experiment was 8.0 × 10^8 CFU/mouse, which was then used for infecting animals.
The chemotherapeutic efficacy of tris(indolyl)methane derivatives was determined in a model of staphylococcal sepsis in mice. Mice of the SHK colony, weighing 18–20 g, were infected intravenously (into the tail vein) with a lethal dose of staphylococcus (0.1 mL of solution). One hour after infection, mice were injected intravenously (0.2 mL of solution each) with the tested tris(indolyl)methane derivatives in the range of doses from 0.1 to 40 mg/kg. For tested drugs, we used solutions prepared in 5% glucose solution. The study of the effectiveness of each drug was conducted on 115–155 mice (10 mice per group). The duration of the experiment was 14 days. The number of dead animals and the time of their death were recorded daily, and the body weight of the animals was recorded three times a week. Their feed intake was monitored, and clinical signs of animal health were assessed daily.
To determine the effectiveness of the tested drugs, 50% effective doses (ED50) were used, which was determined by the Behrens method (frequency accumulation method), as well as by the Litchfield and Wilcoxon method using the StatPlus 2006 software. For all data, the mean and standard deviation were calculated. The differences were defined as significant at p ≤ 0.05.

[4] = 3 mg/kg i.v., Double administration
[5] = single i.v. 3.0 mg/kg 1 h after infection
[6] = single i.v. 5.0 mg/kg 1 h after infection
[7] = single i.v. 7.0 mg/kg 1 h after infection
[8] = single i.v. 9.0 mg/kg 1 h after infection
[9] = single i.v. 11.0 mg/kg 1 h after infection
[10] = single i.v. 13.0 mg/kg 1 h after infection
[11] = single i.v. 0.5 mg/kg 1 h after infection
[12] = single i.v. 1.0 mg/kg 1 h after infection
[13] = single i.v. 1.5 mg/kg 1 h after infection
[14] = single i.v. 1.75 mg/kg 1 h after infection
[15] = single i.v. 2.0 mg/kg 1 h after infection

OCCCCCn1cc([C+](c2cn(CCCCCO)c3ccccc23)c2cn(CCCCCO)c3ccccc23)c2ccccc21.[Cl-] [Compound 1, tris(1-(5-Hydroxypentyl)-1H-indol-3-yl) methylium chloride]
LD50 [1]: 26.2 mg/kg
MTD [1]: 22.6 mg/kg
time of death of animals after drug administration ([2]; intravenous, lethal doses): ≤ 15 min
LD16 [2]: 23.4 mg/kg
LD84 [2]: 28.9 mg/kg
LD100 [2]: 30.2 mg/kg
Death (%) [3, 4]: 75%
Survival Rate (%) [3, 4]: 25%
Dead animals/survivors ([3]; Double, day 0): 0/8
Dead animals/survivors ([3]; Double, day 3): 0/8
Dead animals/survivors ([3]; Double, day 4): 1/7
Dead animals/survivors ([3]; Double, day 6): 3/5
Dead animals/survivors ([3]; Double, day 7): 4/4
Dead animals/survivors ([3]; Double, day 8): 4/4
Dead animals/survivors ([3]; Double, day 9): 5/3
Dead animals/survivors ([3]; Double, day 10): 6/2
Dead animals/survivors ([3]; Double, day 12): 6/2
Dead animals/survivors ([3]; Double, day 14): 6/2
Dead animals/survivors ([3]; One-time, day 0): 0/8
Dead animals/survivors ([3]; One-time, day 3): 1/7
Dead animals/survivors ([3]; One-time, day 4): 2/6
Dead animals/survivors ([3]; One-time, day 6): 4/4
Dead animals/survivors ([3]; One-time, day 7): 5/3
Dead animals/survivors ([3]; One-time, day 8): 5/3
Dead animals/survivors ([3]; One-time, day 9): 6/2
Dead animals/survivors ([3]; One-time, day 10): 7/1
Dead animals/survivors ([3]; One-time, day 12): 7/1
Dead animals/survivors ([3]; One-time, day 14): 7/1
Dead animals/survivors ([3]; Three-fold, day 0): 0/8
Dead animals/survivors ([3]; Three-fold, day 3): 0/8
Dead animals/survivors ([3]; Three-fold, day 4): 1/7
Dead animals/survivors ([3]; Three-fold, day 6): 2/6
Dead animals/survivors ([3]; Three-fold, day 7): 3/5
Dead animals/survivors ([3]; Three-fold, day 8): 3/5
Dead animals/survivors ([3]; Three-fold, day 9): 4/4
Dead animals/survivors ([3]; Three-fold, day 10): 5/3
Dead animals/survivors ([3]; Three-fold, day 12): 5/3
Dead animals/survivors ([3]; Three-fold, day 14): 5/3
ED50 ([3]; Staphylococcus aureus, 10, iv, 1 h): 7.6 mg/kg
survival rate ([3]; dose of 9–11 mg/kg, single i.v.): ~40%
Death (%) [3, 5]: 87.5%
Survival Rate (%) [3, 5]: 12.5%
Death (%) [3, 6]: 75%
Survival Rate (%) [3, 6]: 25%
Death (%) [3, 7]: 75%
Survival Rate (%) [3, 7]: 25%
Death (%) [3, 8]: 62.5%
Survival Rate (%) [3, 8]: 37.5%
Death (%) [3, 9]: 62.5%
Survival Rate (%) [3, 9]: 37.5%
Death (%) [3, 10]: 75%
Survival Rate (%) [3, 10]: 25%

CCCn1cc([C+](c2cn(CCC)c3ccccc23)c2cn(C3=C(N(C)C)C(=O)NC3=O)c3ccccc23)c2ccccc21 [Compound 3, 1-(4-Dimethylamino-2,5-dioxo-2,5-dihydro-1H-pyrrol-3-yl) -1H-indol-3-yl) bis(1-propyl-1H-indol-3-yl) methylium chloride]
LD50 [1]: 24.2 mg/kg
MTD [1]: 16.9 mg/kg
lethal dose causing the death of more than 50% of the animals ([2]; intravenous): 25 to 40 mg/kg
time of death of animals after administration ([2]; intravenous, in words): during the first day after administration
LD16 [2]: 18.5 mg/kg
LD84 [2]: 29.8 mg/kg
LD100 [2]: 32.6 mg/kg
ED50 ([3]; Staphylococcus aureus, 10, single intravenous administration 1 h after infection, read-out: ED50): 1.09 mg/kg
first mortality, day of the experiment ([3]; experimental group 3): 6 to 7 days
last death, day of the experiment ([3]; experimental group 3): 12 days
Death (%) [3, 11]: 70%
Survival Rate (%) [3, 11]: 30%
Death (%) [3, 12]: 50%
Survival Rate (%) [3, 12]: 50%
Death (%) [3, 13]: 40%
Survival Rate (%) [3, 13]: 60%
Death (%) [3, 14]: 10%
Survival Rate (%) [3, 14]: 90%
Death (%) [3, 15]: 0%
Survival Rate (%) [3, 15]: 100%
